Experimental data from patent US20220298483A1, “METHOD AND COMPOSITION FOR CHONDROGENESIS” (National Health Research Institutes, priority 2021, published 2022).

Columns and labels:
iPSC-MSC pellets = experiment: Quantitative real-time PCR of chondrogenic, osteogenic and Wnt downstream genes; format: cell-based, human; conditions: for AXIN2 gene expression: 3 days (FIG. 4C); for COL2A1 gene expression / ACAN gene expression: no TGFβ unless added; for COL2A1 gene expression: Day 3 (FIG. 3C); for ACAN gene expression: Day 3 (FIG. 3D); for collagen 2A1 (COL2A1) gene expression: Day 3 (FIG. 1D); for aggrecan (ACAN) gene expression: Day 3 (FIG. 1E); for RUNX2 mRNA expression compared to ChBM: 10 ng/mL in ChBM, Day 3 (FIG. 2E)
Description: (§1) In vitro chondrogenic differentiation using 3D pellet culture was performed as described previously (Liu et al., 2011; Wang et al., 2018; Yen et al., 2013), 2×10^5 trypsinized were centrifuged 450×g for 10 minutes to form a pellet in expansion medium. After 16 hours, the medium was changed to chondrogenic basal medium (ChBM) consisting of low-glucose DMEM supplemented with 100 units/ml penicillin, 100 μg/ml streptomycin (all from Gibco-Thermo Fisher Scientific), 1% Insulin-transferrin-sodium selenite media supplement (Sigma-Aldrich, St Louis, Mo., USA), 2 mM L-glutamine (Gibco-Thermo Fisher Scientific), 10 μM L-Ascorbic acid 2-phosphate (Sigma-Aldrich), 100 nm dexamethasone (Sigma-Aldrich). Addition of TGFβ1 (10 ng/mL; R&D Systems, Minneapolis, Minn., USA), TGFβ3 (10 ng/mL; R&D Systems), XAV939 (XAV; 10 μM; Sigma-Aldrich) or CHIR99021 (CHIR; 10 μM; Sigma-Aldrich) to ChBM was performed as indicated. Cell pellets were harvested at the indicated day for analysis. Micromass culture-based chondrogenic differentiation was performed as previously reported, using 2×10^7 cells/ml of MSCs suspended in expansion medium and 20-μl drops spotted in the center of each well of a 24-well culture plate (Craft et al., 2015; Greco et al., 2011). After adhesion for 1.5 hour in a humidified incubator at 37° C. with 5% CO2, the medium was changed to ChBM with indicated regulators for chondrogenic induction.
Total RNA was isolated using TRI® reagent (Sigma-Aldrich), and quantified using NanoDrop spectrophotometer (Nyxor Biotech, Paris, France) (Wang et al., 2013). Reverse transcription was performed using RevertAid H Minus reverse transcriptase (Thermo Fisher Scientific), and PCR was performed on ABI PRISM 7500 system (Applied Biosystem, Foster City, Calif., USA) with SYBR Fast qPCR kit (KAPA Biosystems, Boston, Mass., USA). mRNA expression level was calculated by using the ΔΔCt method, and glyceraldehyde 3-phosphate dehydrogenase (GAPDH) level were used as housekeeping control. The results are normalized to ChBM to represent effects of indicated modulators.

[1] = system: β-catenin in iPSC-MSC pellets; experiment: Immunofluorescent staining and quantification of nuclear β-catenin; format: cell-based, human; conditions: ChBM plus modulator, 1 day, compared to ChBM or TGFβ3 (FIG. 4A, 4B)
Description: as §1, with “Micromass culture-based chondrogenic differentiation was performed as previously reported, using 2×10^7 cells/ml of MSCs suspended in expansion medium and 20-μl drops spotted in the center of each well of a 24-well culture plate (Craft et al., 2015; Greco et al., 2011). After adhesion for 1.5 hour in a humidified incubator at 37° C. with 5% CO2, the medium was changed to ChBM with indicated regulators for chondrogenic induction.” left out
(§2) Immunofluorescent staining was performed as previously reported (Wang et al., 2013). […] Fluorescent signals were acquired by confocal microscopy (Leica TCS SP5 II, Wetzlar, Germany) and analyzed by Image J (NIH, Maryland, USA).

[2] = system: human MSCs—including iPSC-MSCs, ESC-MSCs and BM-MSCs; experiment: 3D pellet culture chondrogenesis in complete chondrogenic medium, Alcian Blue staining and GAG quantification; format: cell-based; conditions: ChM containing TGFβ3, 10 μM; for pellet condensation / pellet integrity: Day 20, all 3 sources of MSCs
Description: as §1
Samples were washed with PBS and fixed with 4% paraformaldehyde, followed by pH 1.0 1% Alcian blue 8GX (Sigma-Aldrich) staining at room temperature overnight to detect sulfated proteoglycan matrix (Lev and Spicer, 1964). Quantification of Alcian blue staining extracted with 6M Guanidine-HCl was measured in 650 nm absorbance (Song et al., 2018). […]

[3] = system: micromass-cultured iPSC-MSCs; experiment: Micromass culture chondrogenic differentiation, Alcian Blue staining and quantification; format: cell-based, human; conditions: ChBM plus modulator; for micromass structural condensation and Alcian Blue intensity: Day 10, compared to ChBM and TGFβ3 (FIG. 3B)
Description: as §1
(§3) Samples were washed with PBS and fixed with 4% paraformaldehyde, followed by pH 1.0 1% Alcian blue 8GX (Sigma-Aldrich) staining at room temperature overnight to detect sulfated proteoglycan matrix (Lev and Spicer, 1964). Quantification of Alcian blue staining extracted with 6M Guanidine-HCl was measured in 650 nm absorbance (Song et al., 2018).

[4] = system: pellet-cultured iPSC-MSCs; experiment: 3D pellet culture chondrogenic differentiation of iPSC-MSCs, Alcian Blue staining and quantification; format: cell-based, human; conditions: for pellet condensation and Alcian Blue staining compared to ChBM: ChBM plus modulator (10 ng/mL TGFβ3, 10 μM CHIR or XAV), 20 days (FIG. 3A top); for quantification of GAG production: Day 10, compared to ChBM and to TGFβ3 (FIG. 3A right)
Description: as §1, §3

[5] = system: β-catenin in micromass-cultured iPSC-MSCs; experiment: Immunofluorescence quantification of β-catenin expression; format: cell-based, human; conditions: 1 day (FIG. 8)
Description: Confocal immunofluorescence microscopy and fluorescence quantification of β-catenin in micromass-cultured iPSC-MSCs with the indicated modulators in chondrogenic induction medium for 1 day. Nuclei are labeled by DAPI. Scale bar, 5 μm. ChBM, chondrogenic basal medium without TGFβ. XAV, Wnt/β-catenin antagonist XAV939. CHIR, Wnt/β-catenin agonist CHIR99021. Data are represented as mean±S.D. *, p<0.05, **, p<0.01, ***, p<0.001.
Immunofluorescent staining was performed as previously reported (Wang et al., 2013). Paraformaldehyde-fixed cell samples were permeabilized with 0.1% Triton X-100 and nonspecific binding was blocked by 5% bovine serum albumin Primary antibodies against alpha smooth muscle actin (αSMA) (Sigma-Aldrich), β-catenin (BD Biosciences, San Jose, Calif., USA) or N-cadherin (Abcam, Cambridge, UK) were stained with 1:100 dilution for 24 hours, followed by species specific secondary antibody incubation overnight. Fluorescent signals were acquired by confocal microscopy (Leica TCS SP5 II, Wetzlar, Germany) and analyzed by Image J (NIH, Maryland, USA).

[6] = system: N-cadherin/β-catenin interactions in micromass cultured iPSC-MSCs; experiment: Proximity ligation assay (PLA) for N-cadherin-β-catenin interaction; format: cell-based, human; conditions: ChBM plus modulator, 1 day (FIG. 5C, 5D)
Description: Micromass cultured iPSC-MSCs were used for PLA and performed according to the manufacturer's protocol (Sigma-Aldrich). Antibodies against N-cadherin (Abcam) and β-catenin (BD Biosciences) were used for recognition. After ligation and amplification, the PLA signals from each pair of probes in close proximity (<40 nm) were visualized by confocal microscope (Leica TCS SP5 II) and signal counts were analyzed by Image J.

[7] = system: N-cadherin in iPSC-MSCs cultured as micromass; experiment: Immunofluorescent staining of N-cadherin; format: cell-based, human; conditions: ChBM plus modulator, 24 hours, compared to all other conditions (FIG. 5A, 5B)
Description: as §1, with “Micromass culture-based chondrogenic differentiation was performed as previously reported, using 2×10^7 cells/ml of MSCs suspended in expansion medium and 20-μl drops spotted in the center of each well of a 24-well culture plate (Craft et al., 2015; Greco et al., 2011). After adhesion for 1.5 hour in a humidified incubator at 37° C. with 5% CO2, the medium was changed to ChBM with indicated regulators for chondrogenic induction.” left out
as §2

[8] = system: Mouse BM-MSCs transplanted subcutaneously into wild-type C57BL/6J mice; experiment: In vivo ectopic chondrogenesis, Alcian Blue staining of transplanted MSC pellets; conditions: local injection every 3 days, harvest Day 20 (FIG. 3F)
Description: Samples were washed with PBS and fixed with 4% paraformaldehyde, followed by pH 1.0 1% Alcian blue 8GX (Sigma-Aldrich) staining at room temperature overnight to detect sulfated proteoglycan matrix (Lev and Spicer, 1964). Quantification of Alcian blue staining extracted with 6M Guanidine-HCl was measured in 650 nm absorbance (Song et al., 2018). All animal work was performed according to protocols approved by the Institutional Animal Care and Use Committee. In vivo ectopic chondrogenesis was performed as previously reported with modifications (Zhao et al., 2014). Mouse BM-MSCs were cultured as 3D pellets in ChBM alone or with addition of TGFβ3, CHIR, or XAV for 3 days, then subcutaneously transplanted to dorsal skin of wild-type C57BL/6J mice, with local injections of modulators every 3 days till the pellet sample was harvested at Day 20. Collected samples were then frozen in optimal cutting temperature (OCT) compound and sliced to […] in thickness for histological staining.

[9] = ChBM plus modulator, 3 days (FIG. 4D)

Molecule | AXIN2 gene expression (iPSC-MSC pellets; ChBM plus modulator) | RUNX2 gene expression (iPSC-MSC pellets; [9]) | COL2A1 gene expression (iPSC-MSC pellets; ChBM plus modulator) | ACAN gene expression (iPSC-MSC pellets; ChBM plus modulator) | collagen 2A1 (COL2A1) gene expression (iPSC-MSC pellets; in ChM) | aggrecan (ACAN) gene expression (iPSC-MSC pellets; in ChM) | RUNX2 gene expression (iPSC-MSC pellets; in ChM, Day 3 (FIG. 1F)) | nuclear β-catenin levels [1] | pellet condensation / pellet integrity [2] | micromass structural condensation and Alcian Blue intensity [3] | pellet condensation and Alcian Blue staining compared to ChBM [4] | quantification of GAG production ([4]; ChBM plus modulator) | N-cadherin/β-catenin interactions, PLA signals [6] | RUNX2 mRNA expression compared to ChBM (iPSC-MSC pellets) | also measured
Cc1c[nH]c(-c2cnc(NCCNc3ccc(C#N)cn3)nc2-c2ccc(Cl)cc2Cl)n1 [CHIR, CHIR99021] | strongly increased | strongly increased | minimal expression | minimal expression | significant downregulation | significant downregulation | the opposite effect | dramatically increased | decreased pellet integrity | minimal evidence of any micromass structure or Alcian Blue staining | did not undergo condensation but became disintegrated | minimal GAG production | minimal PLA signal detected | – | SOX9 gene expression (iPSC-MSC pellets; in ChM, Day 3 (FIG. 1C)): significant downregulation; β-catenin expression [5]: strongest expression of β-catenin
C=C1[C@@H](C)[C@H]2[C@H](Cc3ccccc3)NC(=O)[C@]23[C@H](OC(C)=O)/C=C/[C@@](C)(O)C(=O)[C@@H](C)C/C=C/[C@H]3[C@@H]1O [CytoD, cytochalasin D] | – | – | – | – | – | – | – | – | – | – | – | – | – | – | pellet condensation / structure and chondrogenic differentiation ([4]; 0.25 μM CytoD, 10 μM XAV, Day 10 (FIG. 5F, 5G)): significantly disrupted the condensation process with the pellets completely disintegrated by Day 10
Oc1nc(-c2ccc(C(F)(F)F)cc2)nc2c1CSCC2 [XAV, XAV939] | significantly decreased | significantly decreased | most significantly upregulated | most significantly upregulated | significant upregulation | significant upregulation | decreased expression | lowest nuclear β-catenin levels | increased condensation of the pellets | better structural condensation and stronger Alcian Blue intensity | formed well-condensed spheres and strong Alcian Blue staining | significant increases | significantly increase | – | quantification of glycosaminoglycans (GAGs), Alcian Blue ([2]; 20 days, compared to ChM (FIG. 1A)): significant increase; quantitation of GAG production in micromass culture ([3]; Day 10 (FIG. 3B)): highest production of GAG; N-cadherin expression [7]: strongly and most significantly upregulated; GAG production by Alcian Blue staining, XAV versus TGFβ3 ([4]; ChBM plus modulator, Day 10 (FIG. 3A bottom)): more rapidly induced; GAG production in in vivo differentiated samples ([8]; 10 μM): highest level of GAG production; GAG production in vivo compared to TGFβ3 agonism [8]: significantly increased
TGFβ1: pleomorphic growth factor commonly used to induce MSC chondrogenesis (R&D Systems) | – | – | – | – | – | – | – | – | – | – | – | – | – | significantly upregulated | –
TGFβ3: pleomorphic growth factor commonly used to induce MSC chondrogenesis (R&D Systems) (protein, UniProt P10600 301-412, looked up) Transforming growth factor …: ALDTNYCFRNLEENCCVRPLYIDFRQDLGWKWVHEPKGYYANFCSGPCPYLRSADTTHSTVLGLYNTLNPEASASPCCVPQDLEPLTILYYVGRTPKVEQLSNMVVKSCKCS | increased expression | increased expression | did not increase expression | did not increase expression | – | – | – | – | – | – | formed well-condensed spheres and strong Alcian Blue staining | – | – | significantly upregulated | –
